Assay results reported in patent publication US4883649A (The University of Michigan, priority 1988, dated 1989).
Entries after “also recorded” stand apart in the source; their conditions may differ. Counter-ions that a name gives are not always drawn. Like-named read-outs stand apart in the source and are kept apart here.

How the values were obtained:
heart = settings: in vivo; cited from earlier work
[1] = test system: α2-adrenergic receptor sites; settings: cited from earlier work
α2-receptor sites = settings: central nervous system; cited from earlier work
[2] = test system: peripheral α-adrenergic receptors; settings: used as an antihypertensive; initial stimulation of peripheral α-adrenergic receptors; cited from earlier work
[3] = test system: bulbar sympathetic cardioaccelerator and sympathetic vasoconstrictor centers; settings: in vivo; cited from earlier work
choroid of the eye = settings: rats; clonidine hydrochloride; cited from earlier work
[4] = patient; cited from earlier work
α2-adrenergic receptor [5] = target: T1, α2-adrenergic receptor (Homo sapiens, UniProt P08913); settings: human platelet membranes, comparison with other drugs
T1 sequence (P08913 1-465): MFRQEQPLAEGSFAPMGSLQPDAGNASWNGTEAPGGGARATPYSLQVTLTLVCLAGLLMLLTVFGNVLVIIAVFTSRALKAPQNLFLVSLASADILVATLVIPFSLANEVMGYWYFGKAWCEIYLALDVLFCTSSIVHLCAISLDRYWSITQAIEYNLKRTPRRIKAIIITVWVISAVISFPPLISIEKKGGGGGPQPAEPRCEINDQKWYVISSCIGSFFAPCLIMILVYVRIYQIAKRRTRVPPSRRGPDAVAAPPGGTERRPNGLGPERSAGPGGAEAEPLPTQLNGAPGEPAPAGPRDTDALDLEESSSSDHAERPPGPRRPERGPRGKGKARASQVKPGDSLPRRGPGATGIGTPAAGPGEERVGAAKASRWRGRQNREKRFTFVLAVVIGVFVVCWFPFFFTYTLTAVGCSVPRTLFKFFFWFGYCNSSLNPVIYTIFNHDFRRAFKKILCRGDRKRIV
Experimental: (§1) Human platelet plasma membranes were prepared by sonication of human platelet concentrates (Red Cross) followed by centrifugation on a discontinuous sucrose gradient (14%/34% by weight) for 3 hours at 140,000 x g. The membrane fraction was collected from the interface of the heavy and light sucrose, and will be herein designated as purified platelet plasma membrane (PPM).
(§2) Bound radioactivity was measured by scintillation counting of the GF/C filter in OCF scintillation cocktail (Amerscham) on a Beckman LR 8100 scintillation counter.
(§3) IC50 is the concentration of compound which reduces binding to 50% of the initial value.

α2-adrenergic receptor [6] = target: T1, α2-adrenergic receptor; test: biochemical
Experimental: as §1, §2, §3

For `Clc1cccc(Cl)c1N=C1NCCN1` [Clonidine, 2-(2,6-dichlorophenylamine)-2-imidazoline], the tissue localization (heart) is given as “known to localize in the heart”, the binding site specificity [1] is given as “binds preferentially to α2 -adrenergic receptor sites” and the “response to activation of α2-receptor sites” value (α2-receptor sites) is given as “response similar to norepinephrine in the central nervous system”. For the same compound, the initial vascular effect [2] was “transient vasoconstriction” and the “sympathetic outflow from the brain” value [3] was “decrease in sympathetic outflow from the brain”.
For `Clc1cccc(Cl)c1N=C1NCCN1` [clonidine hydrochloride], the “buildup in the choroid of the eye” value (choroid of the eye) is listed as “significant buildup of clonidine occurs in the choroid of the eye”, the retinal degeneration (choroid of the eye) is listed as “possibility of retinal degeneration” and the “route of excretion of drug and metabolites” value [4] is listed as “leave the patient primarily through urinary discharge”.
In the case of `Clc1cc(I)cc(Cl)c1N=C1NCCN1` [p-Iodoclonidine, 2-(2,6-dichloro-4-iodophenylimino-2)imidazolidine], the “relative affinity / potency in competition for α2-adrenergic receptor sites, in words” value (α2-adrenergic receptor [5]) is reported as “greater affinity for the receptor than clonidine”, the “relative affinity / potency in competition for α2-adrenergic receptor sites, in words” value (α2-adrenergic receptor [5]; listed as p-iodoclonidine) is reported as “more potent than either p-aminoclonidine or clonidine in competition for α2 -adrenergic receptor sites; also recorded: more potent (IC50 =1.3) than clonidine, p-aminoclonidine, or yohimbine; also recorded: binds better than epinephrine” and the IC50 (α2-adrenergic receptor [6]) is reported as 1.3 nM.
